Values of other authors as cited in patent US20090017139A1, “Iodine therapy dosing for treating medical conditions” (priority 2007, published 2009).

Experiments:
school age children = details: 11 mg/d, 2.5 years later; cited from earlier work
[1] = 1.5 to more than 10 g/day for weeks at a time; cited from earlier work
[2] = perchlorate 6 mg i.p., 2 hr predosing; cited from earlier work
[3] = male rats, 100 days; cited from earlier work

[I-].[Na+] [sodium iodide]
incidence of goiter (school age children): 0.2%

[I-].[K+] [potassium iodide]
side effects [1]: few side effects are reported

I [iodide, reference compound]
reduction of thyroidal uptake by perchlorate [2]: more than 90%
thyroid size [3]: Significant increases in thyroid size
